From patent publication US4221909A, “P-Acetamidobenzoic acid salts of 9-(hydroxyalkyl) purines” (Sloan-Kettering Institute for Cancer Research, priority 1978, dated 1980)
Converted amounts (≈) assume the structure as drawn.

How the values were obtained:
spleen cells [1] = experiment: In vitro treatment of Con A stimulated spleen cells; assay type: cell-based, mice (Balb/C); conditions: compound 1 μg/ml; suboptimal Con A 5 μg/ml
Source text: (§1) The purpose of this study was to determine the effects of in vivo treatment of mice with the compounds NPT 15392 and 15410 on the subsequent activity of spleen cells isolated from these animals and evaluated in vitro for their proliferative response to the mitogen, Concanavalin A (Con A).
(§2) The following day, each group was sacrificed and the spleens removed and pooled. The spleens were minced and the cells washed in RPMI-1640 medium (Grand Island Biologicals) supplemental with 2 mm glutamine and antibiotics. The cell concentration of each preparation was determined by a Coulter counter and adjusted to 5×10^6 cells/ml with RPMI medium.
Microtiter assays were carried out in 0.2 ml incubations, containing 5×10^5 cells and Con A or Con A and compounds at the indicated concentrations. All assays were performed with 6 replicates and compared with a blank assay containing only cells. The assay plates were incubated at 37° in 5% CO2 for 4 days. During the final 18-20 hours of incubation, […] of ^3 HTdR (10 μCi/ml, 6 Ci /m mole) were added to each culture. The cultures were harvested with a multiple automatic sample harvester (MASH) unit and the incorporated ^3 HTdR determined with a Beckman LS 8000 liquid scintillation counter, as a measure of cell proliferation. The results are tabulated as the ratio of the activity in the Con A or Con A and compound treated cultures to the blank cultures. […]

spleen cells [2] = experiment: In vivo treatment of mice: effect on in vitro stimulation of spleen cell proliferation by Con A; parameters: species or system mice (Balb/C); conditions: oral, twice daily for 1 day; for response of spleen cells to Con A versus placebo: Con A 10 μg/ml; for subsequent response of the spleen cells, in vitro, to Con A stimulation: suboptimal Con A 5 μg/ml
Protocol: as §1
Nine male Balb/C mice, 8-9 weeks old, weighing 18-20 gms were divided into three groups. One group was treated twice daily (for 1 day), in the morning and afternoon, with an oral dose of NPT 15392 at 10 mg/kg. The second group was similarly treated with NPT 15410 at 20 mg/kg. A third group, dosed with saline served as a placebo control.
as §2
Microtiter assays were carried out in 0.2 ml incubations, containing 5×10^5 cells and Con A or Con A and compounds at the indicated concentrations. All assays were performed with 6 replicates and compared with a blank assay containing only cells. The assay plates were incubated at 37° in 5% CO2 for 4 days. During the final 18-20 hours of incubation, 0.5 ml of ^3 HTdR (10 μCi/ml, 6 Ci /m mole) were added to each culture. The cultures were harvested with a multiple automatic sample harvester (MASH) unit and the incorporated ^3 HTdR determined with a Beckman LS 8000 liquid scintillation counter, as a measure of cell proliferation. The results are tabulated as the ratio of the activity in the Con A or Con A and compound treated cultures to the blank cultures.

L-1210 cells = experiment: Anti-Leukemic Activity (Inhibition of L-1210 Growth); assay type: cell-based, mouse
Protocol: Leukemic cells isolated from mice bearing the L-1210 tumor are cultured in vitro and their growth can be measured by counting the number of cells in the culture over a period of time. The incorporation of a test substance into the media will prevent the growth of the leukemic cells, an indication of an effective anti-leukemic agent.
Check to see that there is adequate cell growth in the stock cultures. Use cells 48-72 hours after transfers are done.
Weigh out the drugs at 50 times the desired final concentration and made serial dilutions.
Make up the final medium using 500 mls McCoy's 5A medium, 15% fetal calf serum, 5 mls penicillin-streptomycin solution, and 5 mls antibiotic-antimycotic solution and let it stand at room temperature.
Using sterile technique, add 0.1 ml of the drug dilutions to each tube.
Add an appropriate quantity of cells to the prepared medium. After mixing, remove a 0.5 ml sample, place it in a vial containing […] of saline, and count it on the Coulter Counter. Multiply the count by 40 to compensate for the 40 fold dilution (0.5 ml into […] and record the inoculum.
Add 5 mls of cell suspension to each tube. Swirl the bottle every 4 tubes to insure a more uniform distribution of cells.
Tighten the caps and place in the CO2 incubator at 36°-38° for 96 hours. […]

Phase solubility studies = assay type: physicochemical; conditions: constant pH
Source text: This is indicative of an interaction occuring in solution to yield a complex.

herpes hominis type 2 = experiment: Anti-Herpes Activity (Plaque Assay); assay type: cell-based; conditions: concentrations less than 100 μg/ml
Source text: The infection of tissue culture cells by Herpes virus causes cell lysis. After a period of time these lysed cells are visualized as a tiny clear area (plaque) on a layer of cells. The incorporation of a test substance into the media will reduce the number of plaques if it is capable of preventing virus replication. The method is as follows:
There was employed herpes hominis type 2 purchased from American Type Culture Collection (ATCC), Bethesda, Md., ATCC #VR 540, Lot 3D. The lyophilized viral suspension was reconstituted with 1 ml sterile distilled H2 O. The virus was passed twice through HeLa-cell monolayers. The tissue-culture supernates were pooled, dispensed in 1-ml aliquots, and stored at -70° C.
Vero cells in log-growth phase were subcultured at a concentration of 1×10^5 cells/ml in 50-ml Falcon flasks in Eagle's Minimum Essential Medium (MEM), supplemented with 10% fetal calf serum (FCS) and antibiotics. Media were changed the day following planting. […]
Agarose was prepared at a concentration of 6% w/v in 50 ml PBS. […] In addition, a 1:10 dilution of pooled human anti-herpes sera was readied. […]
Plaques were counted either directly by transmitted fluorescent light and macroviewing, or by the use of light microscopy for microplaques. Microplaques were counted by averaging three fields per experimental group under 150× magnification.

Compound	augmentation of Con A stimulation (spleen cells [1])	response of spleen cells to Con A versus placebo (spleen cells [2])	subsequent response of the spleen cells, in vitro, to Con A stimulation (spleen cells [2])	DIP.PAcBA potentiation of Anti-Leukemia activity (L-1210 cells; DIP.PAcBA salt vs parent compound)	solubility at increasing concentrations of DIP.PAcBA (Phase solubility studies)	reduction of plaque formation caused by Herpes Simplex virus (herpes hominis type 2) [%]	IC50 (L-1210 cells; Mus musculus, L1210, 96 h, 96 hours, text: μg/ml, read-out: I50 (concentration of drug inhibiting growth of L-1210)) [mg/L]
CCCCCC[C@H]([C@H](C)O)n1cnc2c(=O)[nH]cnc21 (relative stereo) [NPT 15410]	marked ability to augment the Con A stimulation	No significant differences	increases the subsequent response of the spleen cells	Yes	–	–	–
CCCCCC[C@H]([C@H](C)O)n1cnc2c(=O)[nH]cnc21 (relative stereo) [NPT 15392, Erythro-9-(2-Hydroxy-3-Nonyl)Hypoxanthine]	marked ability to augment the Con A stimulation	No significant differences	increases the subsequent response of the spleen cells	–	increased solubility	> 90	–
CCCCCCC(CO)n1cnc2c(=O)[nH]cnc21 (stereo not shown) [NPT 15417]	–	–	–	–	–	–	47 (≈ 178 µM)
